{"source": "patent US11140897B2", "about": "“Liquid-core capsules for pest control” (Katz Biotech AG, priority 2015, dated 2021)", "key": {"[1]": {"assay": "active substance release from liquid-core capsules in two manufacturing variants (headspace sampling, GC-MS)", "format": "physicochemical", "details": "1 week", "experimental": "The experiment was conducted in principle as in the model system described in Section D in terms of odor collection and analysis using gas chromatography with mass spectrometry coupling. The following table and FIG. 6 summarize the results of the experiment."}, "Lygus rugulipennis [2]": {"tested_on": "Lygus rugulipennis", "assay": "olfactometer experiments for attractant effect on true bugs", "format": "in vivo", "details": "for true bugs running in the direction of the attractant / attracting action: attractant concentration 0.01 μg/μL (FIG. 7)", "experimental": "Comparative behavior studies were conducted on the bug species Lygus rugulipennis in the olfactometer for identifying suitable attractants (odors). The attracting action of a total of 28 different concentrations of substances and substance mixtures was determined in about 380 individual tests. A result was considered purely coincidental if 50% of the animals decided in favor of an odor and 50% decided against. The odor is considered attractive if more than about 65% of the animals move towards it. […] The certainty of the evaluation increases with the number of tests and is accepted after about 10 repetitions."}, "[3]": {"assay": "loss in mass of alginate model cylinders with additives in the hydrogel", "format": "physicochemical", "experimental": "The following table summarizes the absolute losses in mass for alginate model cylinders (d=13 mm, h=13 mm) after 240 minutes, with the addition of various additives in their most suitable concentrations and the relative losses in mass compared to the losses in mass of the standard specimen without the additives (MCC—microcrystalline cellulose, EC—ethyl cellulose)."}, "Lygus rugulipennis [4]": {"tested_on": "Lygus rugulipennis", "assay": "effect on true bugs after ingesting core liquid with active substance", "format": "in vivo", "experimental": "Experiments were conducted with Lygus rugulipennis and the liquid-core capsules according to the invention, wherein an aqueous nutrient solution having 0.5% NeemAzal® T/S (biological active substance: azadirachtin 0.1%) was present in the core of the capsules. Another experiment was conducted with the chemical active substance acetamiprid (0.01%). When they had contact with the liquid-core capsules, the true bugs used their proboscis to pierce the outer shells of the liquid-core capsules and ingest at least some of the core solution. […] The animals were subjected to a 6-hour hunger phase prior to the beginning of the experiment. […] The lengthy dwell time of the proboscis in the capsule permits this conclusion. With the imago insects, this was an average of 160 seconds, 150 seconds with the nymphs. With the imago insects, this was preceded by a mean testing period (feeling the capsule with the proboscis) of about 30 seconds.\nThe true bugs ceased their activity nearly entirely about 1 day after ingesting the core liquid with the active substance azadirachtin and died after 5 days, on average. The chemical active substance acetamiprid took effect a few seconds after being ingested."}, "true bugs": {"tested_on": "true bugs", "assay": "electrophysiological examinations (electroantennography) of true bugs", "details": "higher concentration (10 μg/μL, FIG. 9)", "experimental": "Electroantennography is a method for measuring the olfactory reactions of an insect by recording electrical signals on the antennae, wherein slow changes in receptor potential that are preferably recorded in the extracellular space within the insect antenna are analyzed. Complex odor mixtures may be investigated using this method. For instance, the use of electroantennography for identifying attractants for wasps is known from DE 11 2010 005 095 T5.\nFIGS. 8 and 9 summarize the results of electrophysiological examinations of true bugs. Green leaf volatiles (Z)-3-hexenyl acetate, (Z)-3-hexen-1-ol, 1-hexenal, the terpenoids (E)-β-caryophyllene, methyl salicylate, ocimene, phenylacetaldehyde, nonanal, alpha-pinene, and geraniol were tested as plant odors, hexyl butyrate and (E)-2-hexenyl butyrate were tested as pheromones of insects, and a synthetic active substance mixture made of (Z)-3-hexen-1-ol, (E)-β-caryophyllene, and hexyl butyrate were tested. FIG. 8 provides the responses in female (a) and male (b) true bugs at an active substance concentration of 0.1 μg/μL. FIG. 9 provides the responses in female (a) and male (b) true bugs at an active substance concentration of 10 μg/μL."}, "[5]": {"details": "core: nutrient solution with 0.5% NeemAzal T/S (azadirachtin 0.1%)"}}}
{"smiles": "C=C1CC/C=C(\\C)CC[C@@H]2[C@@H]1CC2(C)C", "note": "[(E)-b-caryophyllene]", "values": [{"measurement": "odor collected", "setting": "[1]; capsules Type 1", "value": 6.8, "unit": "%"}, {"measurement": "quantity of odor per unit of time", "setting": "[1]; capsules Type 1", "value": 205.2, "unit": "µg"}, {"measurement": "odor collected", "setting": "[1]; capsules Type 2", "value": 26.0, "unit": "%"}, {"measurement": "quantity of odor per unit of time", "setting": "[1]; capsules Type 2", "value": 781.0, "unit": "µg"}, {"measurement": "true bugs running in the direction of the attractant / attracting action", "setting": "Lygus rugulipennis [2]", "value": 80, "unit": "%"}, {"measurement": "change of attracting effect in increased concentrations", "setting": "Lygus rugulipennis [2]; in vivo", "value": "reduced"}]}
{"smiles": "CC/C=C\\CCO", "note": "[(Z)-3-hexen-1-ol]", "values": [{"measurement": "odor collected", "setting": "[1]; capsules Type 1", "value": 0.5, "unit": "%"}, {"measurement": "quantity of odor per unit of time", "setting": "[1]; capsules Type 1", "value": 15.2, "unit": "µg"}, {"measurement": "odor collected", "setting": "[1]; capsules Type 2", "value": 7.8, "unit": "%"}, {"measurement": "quantity of odor per unit of time", "setting": "[1]; capsules Type 2", "value": 235.1, "unit": "µg"}, {"measurement": "true bugs running in the direction of the attractant / attracting action", "setting": "Lygus rugulipennis [2]", "value": 80, "unit": "%"}, {"measurement": "change of attracting effect in increased concentrations", "setting": "Lygus rugulipennis [2]; in vivo", "value": "reduced"}]}
{"smiles": "CCCCCCOC(=O)CCC", "note": "[Hexyl butyrate]", "values": [{"measurement": "odor collected", "setting": "[1]; capsules Type 1", "value": 2.0, "unit": "%"}, {"measurement": "quantity of odor per unit of time", "setting": "[1]; capsules Type 1", "value": 58.8, "unit": "µg"}, {"measurement": "odor collected", "setting": "[1]; capsules Type 2", "value": 19.7, "unit": "%"}, {"measurement": "quantity of odor per unit of time", "setting": "[1]; capsules Type 2", "value": 592.0, "unit": "µg"}, {"measurement": "attraction in olfactometer experiments", "setting": "Lygus rugulipennis [2]; in vivo", "value": "not preferred"}]}
{"smiles": "CCCCCCCCCCCCCCCCCC(=O)O", "note": "[Stearic acid]", "values": [{"measurement": "Loss in mass [%] after 240 min with additive (“Specimen”)", "setting": "[3]; alginate model cylinders d=13 mm, h=13 mm, additive in its most suitable concentration", "value": 6.92, "unit": "%"}, {"measurement": "Specimen loss in mass after 240 min compared to Standard loss in mass [%]", "setting": "[3]; relative to standard specimen without additive", "value": "−6.87", "unit": "%"}]}
{"smiles": "C/C(=N\\C#N)N(C)Cc1ccc(Cl)nc1", "note": "[acetamiprid]", "values": [{"measurement": "time until active substance took effect after being ingested", "setting": "Lygus rugulipennis [4]; acetamiprid 0.01% in core", "value": "a few seconds"}, {"measurement": "time to death", "setting": "Lygus rugulipennis [4]; acetamiprid 0.01% in core, after violent quivering", "value": "a few minutes later"}]}
{"smiles": "C/C=C(\\C)C(=O)O[C@H]1C[C@@H](OC(C)=O)[C@@]2(C(=O)OC)CO[C@H]3[C@@H](O)[C@@](C)([C@]45O[C@@]4(C)[C@H]4C[C@@H]5O[C@@H]5OC=C[C@@]54O)[C@H]4[C@]1(CO[C@]4(O)C(=O)OC)[C@@H]32", "note": "[azadirachtin]", "values": [{"measurement": "time to death, on average", "setting": "Lygus rugulipennis [4]; [5]", "value": 5, "unit": "days"}, {"measurement": "time until activity ceased nearly entirely after ingesting the core liquid", "setting": "Lygus rugulipennis [4]; [5]", "value": "about 1 day"}]}
{"smiles": "CCCCCCCCC=O", "note": "[nonanal]", "values": [{"measurement": "registration by antennal chemoreceptors", "setting": "true bugs", "value": "registered"}, {"measurement": "true bugs running in the direction of the attractant / attracting action", "setting": "Lygus rugulipennis [2]", "value": "about 45%"}, {"measurement": "attracting action", "setting": "Lygus rugulipennis [2]; concentration 1 μg/μL", "value": "about 60%"}, {"measurement": "change of attracting effect in increased concentrations", "setting": "Lygus rugulipennis [2]; in vivo", "value": "increases"}]}
{"smiles": "O=CCc1ccccc1", "note": "[phenylacetaldehyde]", "values": [{"measurement": "registration by antennal chemoreceptors", "setting": "true bugs", "value": "registered"}]}
